Data on 5 compounds can be found in patent US20220213436A1, “BRAIN ORGANOID MACHINE INTERFACE” (The Regents of the University of California, priority 2019, published 2022).

For the first assay, the system named is cortical organoids. As to the kind of experiment: Pharmacological manipulation of cortical organoid network activity recorded by multi-electrode array (MEA). Type of assay: cell-based, human.
Conditions: not given
Regarding `NC1=N[C@H](O)[C@H]2[C@H]3O[C@]4(O)O[C@@H]([C@@H](O)[C@@]2(N1)[C@@H]4O)[C@]3(O)CO` [tetrodotoxin], the neuronal electrical activity entry is listed as “blocked”.

Still in this assay, the particulars now being: 8-month-old organoids; recording 15 min after addition; 20 μM AP5, 20 μM CNQX, 50 μM muscimol, 25 μM baclofen, 10 μM bicuculline.
As to `NCC(CC(=O)O)c1ccc(Cl)cc1` (stereo not drawn) [baclofen], the “number of bursts / burst activity” value is given as “significantly reducing” and the “synchronous activity / synchrony indexes” value is “extinction”.
On to `NCc1cc(=O)[nH]o1` [muscimol], for which the “number of bursts / burst activity” value is reported as “significantly reducing” and the “synchronous activity / synchrony indexes” value is “extinction”.
Take `N#Cc1cc2[nH]c(=O)c(=O)[nH]c2cc1[N+](=O)[O-]` [CNQX]: the “number of bursts / burst activity” value is recorded as “significantly reducing” and the “synchronous activity / synchrony indexes” value was “extinction”.
For `NC(CCCP(=O)(O)O)C(=O)O` (stereo not drawn) [AP5] the same measures were “significantly reducing” and “extinction”.
